In patent EP0445731B1 (priority 1990, dated 1991):
Structures can show the parent of a compound that is named as a salt. Where two headings read alike, the source gives them in different places.

Tests used:
muscarinic binding site [1] = assay: RCMD screening assay: inhibition of binding of radiolabeled cis-methyldioxolane (muscarinic agonist) to rat cerebral cortex tissue; details: read-out: IC₅nM RCMD
Protocol: Similarly, in the RCMD screening assay, described more fully by T. W. Vickeroy, et al, 229(3):747 (1984), rat cerebral cortex tissue was treated with radiolabeled cis-methyldioxolane, a known muscarinic binding site agonist. The concentrations of test compounds required to inhibit 50% of the binding of this muscarinic agonist were then determined. […]

muscarinic binding site [2] = details: rat cerebral cortex tissue, radiolabeled quinuclidinyl benzilate, read-out: IC₅₀nM RQNB

| Structure (SMILES) | IC50 (muscarinic binding site [1]; hydrochloride) [nM] | IC50 (muscarinic binding site [2]; hydrochloride) [nM] | IC50 (muscarinic binding site [1]) [nM] | IC50 (muscarinic binding site [2]) [nM] |
| --- | --- | --- | --- | --- |
| C=CC=CCON=C1CN2CCC1C2 (single isomer, unassigned) [28 (Isomer A), 1-Azabicyclo[2.2.1]-heptan-3-one, O-(2,4-pentadienyl)oxime hydrochloride] | 12.9 | 434 |  |  |
| C=CC=CCON=C1CN2CCC1C2 (single isomer, unassigned) [28 (Isomer B), 1-Azabicyclo[2.2.1]-heptan-3-one, O-(2,4-pentadienyl)oxime hydrochloride] | 256 | 9650 |  |  |
| CCON=C1CN2CCC1C2 (centres unmarked) [Example 2, 1-Azabicyclo[2.2.1]hept-3-one, O-ethyloxime hydrochloride] |  |  | 12.5 | 3110 |
| CON=C1CN2CCC1C2 (centres unmarked) [Example 3, 1-Azabicyclo[2.2.1]heptan-3-one, O-methyloxime hydrochloride] |  |  | 18.2 | 24600 |
| C#CCON=C1CN2CCC1C2 (centres unmarked) [Example 4, 1-Azabicyclo[2.2.1]-heptan-3-one, O-(2-propynyl)oxime hydrochloride] |  |  | 3.5 | 2970 |
| c1ccc(CON=C2CN3CCC2C3)cc1 (centres unmarked) [Example 5, 1-Azabicyclo[2.2.1]-heptan-3-one, O-(phenylmethyl)oxime hydrochloride] |  |  | 133 | 5950 |
| CCCON=C1CN2CCC1C2 (centres unmarked) [Example 6, 1-Azabicyclo[2.2.1]-heptan-3-one, O-propyloxime hydrochloride] |  |  | 120 | 3850 |
| CC(C)ON=C1CN2CCC1C2 (centres unmarked) [Example 7, 1-Azabicyclo[2.2.1]-heptan-3-one, O-(1-methylethyl)oxime hydrochloride] |  |  | 46 | 2030 |
| C=CCON=C1CN2CCC1C2 (centres unmarked) [Example 8, 1-Azabicyclo[2.2.1]-heptan-3-one, O-(2-propenyl)oxime oxalate] |  |  | 53 | 4780 |
| N#CCON=C1CN2CCC1C2 (centres unmarked) [Example 27, {[(1-Azabicyclo[2.2.1]-heptan-3-ylidene)amino]-oxy}acetonitrile hydrochloride] |  |  | 116 | 8820 |
